Values of other authors as cited in patent US20060122162A1, “Methods of using temozolomide formulation intrathecally in the treatment of cancers” (Schering Corporation, priority 2004, published 2006).

Key:
[1] = system: advanced melanoma

## Cn1nnc2c(C(N)=O)ncn2c1=O [Temozolomide, 3,4-dihydro-3-methyl-4-oxoimidazo-[5,1-d]-1,2,3,4-tetrazin-8-carboximide]
other
  solubility in water: water-insoluble
[1]; patients having advanced melanoma, Newlands et al., Br J Cancer 1992
  patients in whom clinical responses were achieved: 17%
[1]; patients with advanced melanoma, Bleehan et al., Journal of Clinical Oncology 1995
  patients in whom a clinical response was achieved: 21%
